The source of these data is publication PMC12150632, “Chalcones inhibit firefly bioluminescence dependent on A and B-ring substitution pattern – a structure-activity study combined with molecular docking” (Journal of Enzyme Inhibition and Medicinal Chemistry, 2025).

This assay has as its target T1, firefly luciferase (FLuc) (Photinus pyralis, UniProt P08659).
T1 construct: purchased Sigma-Aldrich; host or cells: E. coli
The assay can be described thus: Inhibition assay of luciferase (purified recombinant enzyme, bioluminescence readout). The assay is classed as biochemical. As to conditions: n = 3; for IC50: sigmoidal fit, concentration series 100 µM to 13 nM and 300 µM to 0.41 nM; for Inhibition (%) of FLuc: compound concentration 10 µM; for Inhibition (%) of FLuc / inhibition at 10 µM: relative to DMSO vehicle control; for inhibition at 10 µM: read-out: Inhibition (%) of FLuc, compound concentration 10 µM. As for the experimental part:
25 µL of luciferase protein (c = 0.6 µg/mL, Sigma-Aldrich, recombinant expressed in E.coli) in Trisbuffer (10 mM Tris, 10 mM KCl, 1 mM EGTA, 30% glycerol) pH7.4 were added to each well of a white 96 well plate (Brand). The compounds were added in 1 µL DMSO at various concentrations. After incubation of the enzyme with the compounds for 10 min at room temperature, 80 µL of FLuc buffer (25 mM glycylglycin, 4 mM EGTA, 15 mM MgSO4, 15 mM PPB) was added and the light signal was immediately measured using a multiplate reader (Clariostar, BMG) with a gain of 2500 and a measurement interval time of 2 s. Inhibition was calculated in relation to the control, enzyme treated with vehicle (DMSO).
OriginPro 2021b (64-bit) SR2 (9.8.5.212) (OriginLab) was used to determine the inhibition and IC50 values and prepare the figures. The IC50 values were calculated from the sigmoidal fit of the log scale concentration without fixing the parameters.
The inhibitory activity of all chalcones was evaluated at a concentration of 10 µM on purified recombinant firefly luciferase, as this concentration would also be used in the reporter gene assay to determine neurogenic activity.
To obtain the IC50 values and construct a concentration-response curve, chalcones were measured in the assay using a series of decreasing concentrations, ranging from 100 µM to 13 nM and from 300 µM to 0.41 nM.

The IC50 is the concentration at which inhibition is half-maximal.

Some results are limits rather than exact numbers.

T1 sequence (P08659 whole entry): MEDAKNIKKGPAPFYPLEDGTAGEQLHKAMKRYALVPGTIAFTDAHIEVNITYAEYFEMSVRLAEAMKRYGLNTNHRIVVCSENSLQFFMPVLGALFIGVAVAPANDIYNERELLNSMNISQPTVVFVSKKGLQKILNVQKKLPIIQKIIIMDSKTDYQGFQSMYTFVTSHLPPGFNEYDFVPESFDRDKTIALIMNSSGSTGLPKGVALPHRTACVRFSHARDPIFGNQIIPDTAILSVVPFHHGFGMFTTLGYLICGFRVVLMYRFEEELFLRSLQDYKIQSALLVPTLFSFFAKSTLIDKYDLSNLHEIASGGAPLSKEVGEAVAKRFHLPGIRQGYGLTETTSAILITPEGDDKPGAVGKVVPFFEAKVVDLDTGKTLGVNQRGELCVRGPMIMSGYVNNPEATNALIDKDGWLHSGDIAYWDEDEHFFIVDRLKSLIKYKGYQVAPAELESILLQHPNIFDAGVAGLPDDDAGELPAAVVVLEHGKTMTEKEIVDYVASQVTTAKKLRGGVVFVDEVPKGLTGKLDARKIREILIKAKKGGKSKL

For the compound `O=C(O)c1cccc(-c2noc(-c3ccccc3F)n2)c1` [Ataluren, reference compound], the IC50 is 0.11 µM.
In the case of `CC1(C)C=Cc2cc(C(=O)/C=C/c3ccc(O)cc3)ccc2O1` [Compound 2, (E)-1–(2,2dimethyl-2H-chromen-6-yl)-3–(4-hydroxyphenyl)prop-2-en-1-one], the inhibition at 10 µM is 30%. Besides, the “Inhibition (%) of FLuc” value (10 µM) worked out at 32%.
Consider `COc1cc2c(cc1C(=O)/C=C/c1ccc(O)cc1)C=CC(C)(C)O2` [Compound 3, (E)-3–(4-hydroxyphenyl)-1–(7-methoxy-2,2-dimethyl-2H-chromen-6-yl)prop-2-en-1-one], for which the inhibition at 10 µM is less than 5%.
The same measure, in the same setting: the result for `CC1(C)C=Cc2c(ccc(C(=O)/C=C/c3ccc(O)cc3)c2O)O1` [Compound 4, (E)-1–(5-hydroxy-2,2-dimethyl-2H-chromen-6-yl)-3–(4-hydroxyphenyl)prop-2-en-1-one] reads less than 10%; that for `CC1(C)C=Cc2cc(C(=O)/C=C/c3ccc(O)cc3)c(O)cc2O1` [Compound 5, (E)-1–(7-hydroxy-2,2-dimethyl-2H-chromen-6-yl)-3–(4-hydroxyphenyl)prop-2-en-1-one], less than 5%.
As to `CC1(C)C=Cc2cc(C(=O)/C=C/c3ccc(O)cc3)ccc2N1` [Compound 6, (E)-1–(2,2-dimethyl-1,2-dihydroquinolin-6-yl)-3–(4-hydroxyphenyl)prop-2-en-1-one], the inhibition at 10 µM was determined as 18%.
Take `CC1(C)C=Cc2cc(C(=O)/C=C/c3ccc(N)cc3)ccc2O1` [Compound 8, (E)-3–(4-aminophenyl)-1–(2,2-dimethyl-2H-chromen-6-yl)prop-2-en-1-one]: the “Inhibition (%) of FLuc” value is “comparable to that of the hydroxyl group”.
On the same count and under the same terms, the result for `CC1(C)C=Cc2cc(C(=O)/C=C/c3ccc(Cl)cc3)ccc2O1` [Compound 12, (E)-3–(4-chlorphenyl)-1–(2,2-dimethyl-2H-chromen-6-yl)prop-2-en-1-one] reads “near-complete elimination of the inhibitory effect”; that for `CC1(C)C=Cc2cc(C(=O)/C=C/c3ccc(C(F)(F)F)cc3)ccc2O1` [Compound 13, (E)-1–(2,2-dihmethyl-2H-chromen-6-yl)-3–(4-(trifluoromethyl)phenyl)prop-2-en-1-one], “near-complete elimination of the inhibitory effect”.
Regarding `CC1(C)C=Cc2cc(C(=O)/C=C/c3ccccc3)ccc2O1` [Compound 14, (E)-1–(2,2-dimethyl-2H-chromen-6-yl)-3-phenylprop-2-en-1-one], the “Inhibition (%) of FLuc” value is reported as “most pronounced inhibitory effect” and the IC50 was less than 10 µM.
Consider `CC1(C)C=Cc2cc(C(=O)/C=C/c3cccc(O)c3O)ccc2O1` [Compound 18, (E)-3–(2,3-dihydroxyphenyl)-1–(2,2-dimethyl-2H-chromen-6-yl)prop-2-en-1-one], for which the IC50 was less than 10 µM.
In the case of “(E)-1–(2,2-dimethyl-2H-thiochromen-6-yl)-3–(4-methoxyphenyl)prop-2-en-1-one [Compound 7]”, the “Inhibition (%) of FLuc” value is listed as “less than 10%”.
“(E)-1–(7-hydroxy-5-methoxy-2,2-dimethyl-2H-chromen-6-yl)-3–(4-hydroxyphenyl)prop-2-en-1-one [Compound 1]”: the “Inhibition (%) of FLuc” value is “no inhibition” (10 µM) and “no inhibitory effect” (listed as xanthohumol C, 10 µM).
